# From publication PMC10287566, “Signaling-specific inhibition of the CB1 receptor for cannabis use disorder: phase 1 and phase 2a randomized trials” (Nature Medicine, 2023)
# Where “and” joins values, the source holds several entries; their conditions need not be identical. Equal entries are not always repeated.
# What was measured:
# Melatonin MT1 (ML1A) = Melatonin MT1 (ML1A) (Homo sapiens, UniProt P48039); test: Eurofins binding screen
# PPAR gamma = PPAR gamma (Homo sapiens, UniProt P37231); test: Eurofins binding screen
# Glutamate PCP = test: Eurofins binding screen; conditions: 10 µM
# [1] = target: Cholecystokinin CCK2 (CCKB) (Homo sapiens, UniProt P32239); test: Eurofins binding screen
# Sequence of Cholecystokinin CCK2 (CCKB) (P32239 whole entry): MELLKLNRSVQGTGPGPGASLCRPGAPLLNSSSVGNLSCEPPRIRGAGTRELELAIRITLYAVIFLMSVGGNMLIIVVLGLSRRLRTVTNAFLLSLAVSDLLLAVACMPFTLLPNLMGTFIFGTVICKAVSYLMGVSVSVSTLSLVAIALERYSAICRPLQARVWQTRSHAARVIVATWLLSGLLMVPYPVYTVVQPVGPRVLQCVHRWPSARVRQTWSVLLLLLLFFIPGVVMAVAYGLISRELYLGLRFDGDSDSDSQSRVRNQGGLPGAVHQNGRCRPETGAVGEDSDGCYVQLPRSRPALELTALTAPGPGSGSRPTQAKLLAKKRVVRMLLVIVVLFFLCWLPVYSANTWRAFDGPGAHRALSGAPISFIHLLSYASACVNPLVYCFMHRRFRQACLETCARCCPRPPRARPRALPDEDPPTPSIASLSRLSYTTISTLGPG
# Serotonin 5-HT1A = Serotonin 5-HT1A (Homo sapiens, UniProt P08908); test: Eurofins binding screen
# Purinergic channels P2X = test: Eurofins binding screen; conditions: 10 µM
# PXR = PXR (Homo sapiens, UniProt O75469); test: Eurofins binding screen
# Sequence of PXR (O75469 whole entry): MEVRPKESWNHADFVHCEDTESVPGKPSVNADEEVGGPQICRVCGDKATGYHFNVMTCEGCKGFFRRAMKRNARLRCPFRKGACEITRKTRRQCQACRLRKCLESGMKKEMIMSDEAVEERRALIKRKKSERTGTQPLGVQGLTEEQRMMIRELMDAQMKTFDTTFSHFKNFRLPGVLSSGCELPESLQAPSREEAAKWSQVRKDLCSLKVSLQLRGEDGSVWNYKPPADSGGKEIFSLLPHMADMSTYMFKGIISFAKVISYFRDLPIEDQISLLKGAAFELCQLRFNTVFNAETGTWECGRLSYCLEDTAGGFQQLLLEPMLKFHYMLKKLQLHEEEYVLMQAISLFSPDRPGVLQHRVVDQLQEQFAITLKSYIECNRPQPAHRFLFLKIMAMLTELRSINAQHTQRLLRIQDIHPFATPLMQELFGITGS
# sigma = test: Eurofins binding screen; conditions: 10 µM
# Neuropeptide Y Y1 = Neuropeptide Y Y1 (Homo sapiens, UniProt P25929); test: Eurofins binding screen
# Sequence of Neuropeptide Y Y1 (P25929 whole entry): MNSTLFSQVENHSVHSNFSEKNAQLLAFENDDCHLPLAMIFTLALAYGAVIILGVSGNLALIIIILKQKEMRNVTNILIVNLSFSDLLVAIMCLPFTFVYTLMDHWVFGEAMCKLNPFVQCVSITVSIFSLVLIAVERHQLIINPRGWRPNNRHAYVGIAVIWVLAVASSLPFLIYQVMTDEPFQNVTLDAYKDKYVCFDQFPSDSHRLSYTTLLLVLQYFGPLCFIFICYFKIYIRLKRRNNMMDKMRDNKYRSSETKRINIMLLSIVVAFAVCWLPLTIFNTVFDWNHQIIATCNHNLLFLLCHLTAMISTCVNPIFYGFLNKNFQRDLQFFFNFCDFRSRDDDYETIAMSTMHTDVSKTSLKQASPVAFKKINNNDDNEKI
# Opioid delta2 (DOP) = Opioid delta2 (DOP) (Homo sapiens, UniProt P41143); test: Eurofins binding screen
# Neurokinin NK3 = Neurokinin NK3 (Homo sapiens, UniProt P29371); test: Eurofins binding screen
# Endothelin ETA = Endothelin ETA (Homo sapiens, UniProt P25101); test: Eurofins binding screen
# PAC1 - PACAP = PAC1 - PACAP (Homo sapiens, UniProt P41586); test: Eurofins binding screen
# Vasopressin V1a = Vasopressin V1a (Homo sapiens, UniProt P37288); test: Eurofins binding screen
# Adenosine A3 = Adenosine A3 (Homo sapiens, UniProt P0DMS8); test: Eurofins binding screen
# Dopamine D3 = Dopamine D3 (Homo sapiens, UniProt P35462); test: Eurofins binding screen
# Adrenergic beta2 = Adrenergic beta2 (Homo sapiens, UniProt P07550); test: Eurofins binding screen
# [2] = target: Vasoactive intestinal peptide VPAC1 (VIP1) (Homo sapiens, UniProt P32241); test: Eurofins binding screen
# Galanin GAL2 = Galanin GAL2 (Homo sapiens, UniProt O43603); test: Eurofins binding screen
# Sequence of Galanin GAL2 (O43603 whole entry): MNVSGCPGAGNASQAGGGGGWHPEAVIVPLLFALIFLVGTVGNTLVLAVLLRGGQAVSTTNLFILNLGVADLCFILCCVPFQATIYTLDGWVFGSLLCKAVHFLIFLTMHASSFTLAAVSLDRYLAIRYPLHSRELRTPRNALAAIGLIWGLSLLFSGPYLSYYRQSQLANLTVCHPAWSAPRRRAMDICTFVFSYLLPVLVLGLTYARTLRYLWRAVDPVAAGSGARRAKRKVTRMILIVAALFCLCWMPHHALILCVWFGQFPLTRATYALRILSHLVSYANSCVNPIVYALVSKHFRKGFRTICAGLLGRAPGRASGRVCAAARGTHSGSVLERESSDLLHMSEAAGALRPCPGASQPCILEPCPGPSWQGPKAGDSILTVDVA
# Histamine H1 = Histamine H1 (Homo sapiens, UniProt P35367); test: Eurofins binding screen
# Sequence of Histamine H1 (P35367 whole entry): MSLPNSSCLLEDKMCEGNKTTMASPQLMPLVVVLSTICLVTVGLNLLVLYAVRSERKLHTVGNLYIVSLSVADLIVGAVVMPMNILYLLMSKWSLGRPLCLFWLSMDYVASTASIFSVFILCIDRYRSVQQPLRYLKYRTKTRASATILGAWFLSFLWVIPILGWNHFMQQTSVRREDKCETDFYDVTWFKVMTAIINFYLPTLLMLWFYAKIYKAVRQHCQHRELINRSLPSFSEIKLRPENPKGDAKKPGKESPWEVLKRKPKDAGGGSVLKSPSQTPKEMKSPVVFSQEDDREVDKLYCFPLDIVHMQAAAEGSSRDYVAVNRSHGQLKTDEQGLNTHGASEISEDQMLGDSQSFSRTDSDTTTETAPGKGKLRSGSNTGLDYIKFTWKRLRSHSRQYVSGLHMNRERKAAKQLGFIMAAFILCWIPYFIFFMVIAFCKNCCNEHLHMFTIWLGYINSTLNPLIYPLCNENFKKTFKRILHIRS
# Neuropeptide Y Y2 = Neuropeptide Y Y2 (Homo sapiens, UniProt P49146); test: Eurofins binding screen
# Serotonin 5-HT3 = Serotonin 5-HT3 (Homo sapiens, UniProt P46098); test: Eurofins binding screen
# Muscarinic M4 = Muscarinic M4 (Homo sapiens, UniProt P08173); test: Eurofins binding screen
# [3] = target: T1, hERG (human ether-a-go-go-related gene) (Homo sapiens, UniProt Q12809); test: hERG tail current in transfected HEK293 cells (GLP); assay type: cell-based; conditions: GLP safety pharmacology
# T1 construct: expressed in transfected cells; host or cells: HEK293 (stably transfected)
# Protocol: Cells were clamped to −80 mV, depolarized to 0 mV for 5 s allowing activation of hERG current and repolarized to −50 mV for 5 s allowing hERG tail current to deactivate. This experimental procedure was repeated at a frequency of 0.06 Hz. Currents were filtered at 1 kHz and acquired at the frequency of 2 kHz. Amplitude of hERG tail current was measured during the repolarizing pulse from 0 to −50 mV. […] Currents were measured before and after exposure to the test compound. The individual data were collected using pClamp software (release 8.2, AXON Instruments, Molecular Devices).
# [4] = target: PR (progesterone receptor) (Homo sapiens, UniProt P06401); test: Eurofins binding screen
# Sequence of PR (progesterone receptor) (P06401 whole entry): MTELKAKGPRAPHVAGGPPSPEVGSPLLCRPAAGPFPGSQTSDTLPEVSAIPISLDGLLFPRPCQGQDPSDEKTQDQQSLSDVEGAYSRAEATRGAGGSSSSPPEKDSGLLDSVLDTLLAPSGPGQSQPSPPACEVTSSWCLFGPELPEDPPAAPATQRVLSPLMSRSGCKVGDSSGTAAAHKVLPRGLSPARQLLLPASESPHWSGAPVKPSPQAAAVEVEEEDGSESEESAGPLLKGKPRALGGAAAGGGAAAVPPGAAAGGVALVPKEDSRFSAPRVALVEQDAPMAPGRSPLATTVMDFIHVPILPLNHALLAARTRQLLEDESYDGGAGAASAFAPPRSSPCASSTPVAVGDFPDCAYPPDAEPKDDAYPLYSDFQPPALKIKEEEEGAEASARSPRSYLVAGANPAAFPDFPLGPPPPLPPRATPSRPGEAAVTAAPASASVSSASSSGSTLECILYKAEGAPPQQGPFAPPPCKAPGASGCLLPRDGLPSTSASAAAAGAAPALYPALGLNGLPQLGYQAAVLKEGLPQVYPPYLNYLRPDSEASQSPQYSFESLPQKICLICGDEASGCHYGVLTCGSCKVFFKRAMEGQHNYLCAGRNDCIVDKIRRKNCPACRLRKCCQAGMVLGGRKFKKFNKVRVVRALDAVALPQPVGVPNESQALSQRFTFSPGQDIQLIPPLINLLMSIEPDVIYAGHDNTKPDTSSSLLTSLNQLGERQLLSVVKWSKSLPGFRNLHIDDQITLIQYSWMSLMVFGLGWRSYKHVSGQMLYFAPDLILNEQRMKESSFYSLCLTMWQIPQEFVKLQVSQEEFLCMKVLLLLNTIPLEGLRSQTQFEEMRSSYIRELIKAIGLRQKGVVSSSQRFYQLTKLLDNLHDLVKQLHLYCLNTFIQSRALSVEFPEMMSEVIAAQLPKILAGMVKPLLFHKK
# Adrenergic alpha1 = test: Eurofins binding screen; conditions: 10 µM
# [5] = tested on: Sodium channels Na+-site2; test: Eurofins binding screen; conditions: 10 µM
# Dopamine transporter DAT = Dopamine transporter DAT (Homo sapiens, UniProt Q01959); test: Eurofins binding screen
# Sequence of Dopamine transporter DAT (Q01959 whole entry): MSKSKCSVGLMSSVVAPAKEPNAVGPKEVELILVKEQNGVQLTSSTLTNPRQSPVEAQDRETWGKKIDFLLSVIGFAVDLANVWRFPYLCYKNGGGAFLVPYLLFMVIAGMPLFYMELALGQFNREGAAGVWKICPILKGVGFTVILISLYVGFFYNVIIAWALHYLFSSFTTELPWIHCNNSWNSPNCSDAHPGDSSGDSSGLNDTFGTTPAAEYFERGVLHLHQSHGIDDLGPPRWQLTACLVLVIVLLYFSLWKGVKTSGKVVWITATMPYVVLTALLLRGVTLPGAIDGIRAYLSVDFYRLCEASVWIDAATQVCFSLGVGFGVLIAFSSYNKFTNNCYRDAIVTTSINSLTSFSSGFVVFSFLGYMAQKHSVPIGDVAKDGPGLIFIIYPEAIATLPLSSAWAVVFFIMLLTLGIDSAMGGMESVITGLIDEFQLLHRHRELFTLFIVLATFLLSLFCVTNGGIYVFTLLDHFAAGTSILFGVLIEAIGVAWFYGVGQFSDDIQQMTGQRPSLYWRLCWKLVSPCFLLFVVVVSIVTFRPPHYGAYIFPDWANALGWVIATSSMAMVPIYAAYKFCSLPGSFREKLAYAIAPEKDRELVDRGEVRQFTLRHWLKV
# Melanocortin MC4 = Melanocortin MC4 (Homo sapiens, UniProt P32245); test: Eurofins binding screen
# Sequence of Melanocortin MC4 (P32245 whole entry): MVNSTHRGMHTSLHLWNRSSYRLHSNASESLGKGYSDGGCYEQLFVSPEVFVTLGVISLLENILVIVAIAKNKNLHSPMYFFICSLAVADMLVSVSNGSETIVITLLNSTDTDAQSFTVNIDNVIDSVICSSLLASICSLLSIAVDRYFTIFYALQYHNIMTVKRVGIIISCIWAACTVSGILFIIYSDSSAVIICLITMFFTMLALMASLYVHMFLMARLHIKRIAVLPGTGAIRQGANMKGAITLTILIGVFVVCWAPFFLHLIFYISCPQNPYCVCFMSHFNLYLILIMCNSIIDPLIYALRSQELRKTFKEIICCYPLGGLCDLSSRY
# [6] = target: Serotonin transporter SET (Homo sapiens, UniProt P31645); test: Eurofins binding screen
# Opioid kappa (KOP) = test: Eurofins binding screen; conditions: 10 µM
# [7] = target: PBR (peripheral benzodiazepine receptor) (Rattus norvegicus, UniProt P16257); test: Eurofins binding screen; conditions: for Percent inhibition of control specific binding: 10 µM
# Sequence of PBR (peripheral benzodiazepine receptor) (P16257 whole entry): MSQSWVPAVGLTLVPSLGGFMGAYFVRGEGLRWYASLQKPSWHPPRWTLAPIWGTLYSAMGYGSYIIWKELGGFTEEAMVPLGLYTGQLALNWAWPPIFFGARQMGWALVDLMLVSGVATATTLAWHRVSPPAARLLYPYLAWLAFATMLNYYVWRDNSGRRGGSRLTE
# Prostanoid EP2 = Prostanoid EP2 (Homo sapiens, UniProt P43116); test: Eurofins binding screen
# Cannabinoid CB2 = Cannabinoid CB2 (Homo sapiens, UniProt P34972); test: Eurofins binding screen
# Adenosine A1 = Adenosine A1 (Homo sapiens, UniProt P30542); test: Eurofins binding screen
# Sequence of Adenosine A1 (P30542 whole entry): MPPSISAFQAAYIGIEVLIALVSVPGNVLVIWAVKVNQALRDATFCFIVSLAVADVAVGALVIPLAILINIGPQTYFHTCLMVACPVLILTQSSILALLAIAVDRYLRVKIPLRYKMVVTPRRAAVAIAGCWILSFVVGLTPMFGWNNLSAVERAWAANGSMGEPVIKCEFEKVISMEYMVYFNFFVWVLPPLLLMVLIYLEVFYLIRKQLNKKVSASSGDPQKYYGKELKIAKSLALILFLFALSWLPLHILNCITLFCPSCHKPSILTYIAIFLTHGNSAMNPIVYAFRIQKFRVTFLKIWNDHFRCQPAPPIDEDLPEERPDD
# Opioid mu (MOP) = Opioid mu (MOP) (Homo sapiens, UniProt P35372); test: Eurofins binding screen
# Muscarinic M3 = Muscarinic M3 (Homo sapiens, UniProt P20309); test: Eurofins binding screen
# Endothelin ETB = Endothelin ETB (Homo sapiens, UniProt P24530); test: Eurofins binding screen
# [8] = read-out: Percent inhibition of control specific binding
# Sequence of Melatonin MT1 (ML1A) (P48039 whole entry): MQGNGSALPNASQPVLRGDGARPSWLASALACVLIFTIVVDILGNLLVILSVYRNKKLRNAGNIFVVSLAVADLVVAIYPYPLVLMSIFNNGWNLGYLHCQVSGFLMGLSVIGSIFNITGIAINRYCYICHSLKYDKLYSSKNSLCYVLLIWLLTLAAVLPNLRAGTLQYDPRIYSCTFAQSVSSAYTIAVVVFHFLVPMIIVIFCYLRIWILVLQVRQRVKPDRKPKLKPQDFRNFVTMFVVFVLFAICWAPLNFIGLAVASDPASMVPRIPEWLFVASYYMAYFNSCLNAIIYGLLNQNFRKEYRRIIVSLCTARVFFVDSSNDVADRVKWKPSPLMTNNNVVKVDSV
structure (smiles),measurement,setting,value
"COc1ccc(CO[C@H]2CC[C@@]3(C)C(=CC[C@H]4[C@@H]5CC[C@H](C(C)=O)[C@@]5(C)CC[C@@H]43)C2)cc1 [AEF0117, 3β-(4-methoxybenzyloxy)pregn-5-en-20-one]",inhibition at 10 µM,Melatonin MT1 (ML1A); [8],-11%
same,inhibition at 10 µM,PPAR gamma; [8],7%
same,Percent inhibition of control specific binding,Glutamate PCP,2%
same,inhibition at 10 µM,[1]; [8],-35%
same,inhibition at 10 µM,Serotonin 5-HT1A; [8],-11%
same,Percent inhibition of control specific binding,Purinergic channels P2X,-29%
same,inhibition at 10 µM,PXR; [8],7%
same,Percent inhibition of control specific binding,sigma,-4%
same,inhibition at 10 µM,Neuropeptide Y Y1; [8],-9%
same,inhibition at 10 µM,Opioid delta2 (DOP); [8],-4%
same,inhibition at 10 µM,Neurokinin NK3; [8],-1%
same,inhibition at 10 µM,Endothelin ETA; [8],-4%
same,inhibition at 10 µM,PAC1 - PACAP; [8],4%
same,inhibition at 10 µM,Vasopressin V1a; [8],0%
same,inhibition at 10 µM,Adenosine A3; [8],-20%
same,inhibition at 10 µM,Dopamine D3; [8],2%
same,inhibition at 10 µM,Adrenergic beta2; [8],4%
same,inhibition at 10 µM,[2]; [8],-4%
same,inhibition at 10 µM,Galanin GAL2; [8],-9%
same,inhibition at 10 µM,Histamine H1; [8],4%
same,inhibition at 10 µM,Neuropeptide Y Y2; [8],-22%
same,inhibition at 10 µM,Serotonin 5-HT3; [8],-7%
same,inhibition at 10 µM,Muscarinic M4; [8],0%
same,adverse effects on hERG tail current,[3],did not show any adverse effects
same,inhibition at 10 µM,[4]; [8],29%
same,Percent inhibition of control specific binding,Adrenergic alpha1,-5%
same,Percent inhibition of control specific binding,[5],5%
same,inhibition at 10 µM,Dopamine transporter DAT; [8],0%
same,inhibition at 10 µM,Melanocortin MC4; [8],-8%
same,inhibition at 10 µM,[6]; [8],8%
same,Percent inhibition of control specific binding,Opioid kappa (KOP),1%
same,inhibition at 10 µM,[7]; [8],4%
same,inhibition at 10 µM,Prostanoid EP2; [8],27%
same,inhibition at 10 µM,Cannabinoid CB2; [8],-2%
same,inhibition at 10 µM,Adenosine A1; [8],14%
same,inhibition at 10 µM,Opioid mu (MOP); [8],-10%
same,inhibition at 10 µM,Muscarinic M3; [8],-18%
same,inhibition at 10 µM,Endothelin ETB; [8],2%
"CC(=O)[C@H]1CC[C@H]2[C@@H]3CC=C4C[C@@H](O)CC[C@]4(C)[C@H]3CC[C@]12C [pregnenolone, reference compound]",Percent inhibition of control specific binding,Melatonin MT1 (ML1A); 10 µM,26%
same,Percent inhibition of control specific binding,PPAR gamma; 10 µM,4%
same,Percent inhibition of control specific binding,Glutamate PCP,5%
same,Percent inhibition of control specific binding,[1]; 10 µM,-38%
same,Percent inhibition of control specific binding,Serotonin 5-HT1A; 10 µM,12%
same,Percent inhibition of control specific binding,Purinergic channels P2X,13%
same,Percent inhibition of control specific binding,PXR; 10 µM,15%
same,Percent inhibition of control specific binding,sigma,26%
same,Percent inhibition of control specific binding,Neuropeptide Y Y1; 10 µM,-11%
same,Percent inhibition of control specific binding,Opioid delta2 (DOP); 10 µM,9%
same,Percent inhibition of control specific binding,Neurokinin NK3; 10 µM,11%
same,Percent inhibition of control specific binding,Endothelin ETA; 10 µM,-3%
same,Percent inhibition of control specific binding,PAC1 - PACAP; 10 µM,-25%
same,Percent inhibition of control specific binding,Vasopressin V1a; 10 µM,10%
same,Percent inhibition of control specific binding,Adenosine A3; 10 µM,11%
same,Percent inhibition of control specific binding,Dopamine D3; 10 µM,11%
same,Percent inhibition of control specific binding,Adrenergic beta2; 10 µM,-5%
same,Percent inhibition of control specific binding,[2]; 10 µM,-10%
same,Percent inhibition of control specific binding,Galanin GAL2; 10 µM,1%
same,Percent inhibition of control specific binding,Histamine H1; 10 µM,0%
same,Percent inhibition of control specific binding,Neuropeptide Y Y2; 10 µM,-9%
same,Percent inhibition of control specific binding,Serotonin 5-HT3; 10 µM,6%
same,Percent inhibition of control specific binding,Muscarinic M4; 10 µM,-4%
same,Percent inhibition of control specific binding,[4]; 10 µM,> 80% and 87%
same,Percent inhibition of control specific binding,Adrenergic alpha1,1%
same,Percent inhibition of control specific binding,[5],23%
same,Percent inhibition of control specific binding,Dopamine transporter DAT; 10 µM,-12%
same,Percent inhibition of control specific binding,Melanocortin MC4; 10 µM,-15%
same,Percent inhibition of control specific binding,[6]; 10 µM,1%
same,Percent inhibition of control specific binding,Opioid kappa (KOP),38%
same,Percent inhibition of control specific binding,[7],> 40%
same,Percent inhibition of control specific binding,[7]; listed as Preg,42%
same,Percent inhibition of control specific binding,Prostanoid EP2; 10 µM,24%
same,Percent inhibition of control specific binding,Cannabinoid CB2; 10 µM,-19%
same,Percent inhibition of control specific binding,Adenosine A1; 10 µM,-25%
same,Percent inhibition of control specific binding,Opioid mu (MOP); 10 µM,-5%
same,Percent inhibition of control specific binding,Muscarinic M3; 10 µM,2%
same,Percent inhibition of control specific binding,Endothelin ETB; 10 µM,4%
